Results on 1 compound are retold here after patent publication US20210145830A1, “MATERIALS AND METHODS FOR TREATING CANCER” (Mayo Foundation for Medical Education and Research, priority 2018, published 2021).

One assay concerns Effector T cells (Teff). Put plainly: Effector T cell expansion (anti-CD3/CD28 beads, IL-2). Format: cell-based, human. Conditions: anti-CD3/CD28 beads + 400 U/ml IL-2; day 5. As for the experimental part: FIGS. 19A-F. A. Inhibitory receptors expression in naïve T cells after TCR activation with CD3 stimulation in the increasing dose of TP0903. Naïve T cells were incubated with anti CD3/CD28 beads at a 1 to 3 ratio in the presence of TP0903. At day 3, T cells were stained with PD-1, TIM-3, LAG-3, and ICOS. […] Teff cells were isolated by negative selection using Human T Cell Isolation Kit. Tregs were isolated by negative selection using the human CD4^+CD127^lowCD25^+ Treg isolation kit. Teff and Treg were stimulated with anti CD3/CD28 beads and 400 U/ml of IL-2. At day 5, total T cells were evaluated via CountBright quantification. C. CART19 cytokine assay in the presence TP0903. UTDs or CART19 were incubated with Jeko in the presence of TP-0903 at a 1 to 1 ratio. Supernatant was harvested and analyzed by 32-plex Luminex array after 3 days. D. Inhibitory receptors expression in CART19 cells in the presence TP0903. UTDs or CART19 were incubated with Jeko at a 1 to 1 E/T ratio in the presence of TP0903. At day 5, T cells were stained with PD-1 (left), LAG-3 (right), and TIM-3. […] Cell killing was assessed by luminescence at 24 hours. […]
FIG. 21A-E. TP0903 modulates naïve T cells function upon stimulation of PMA/Ionomycin in vitro. […] At day 5, total T cells were evaluated via CountBright quantification.

A further assay deals with Naïve T cells. Description: Naïve T cell degranulation assay and cytokine production. Format: cell-based. Conditions: PMA/Ionomycin. How it is done:
FIG. 21A-E. TP0903 modulates naïve T cells function upon stimulation of PMA/Ionomycin in vitro. A. Naïve T cell proliferation assay in the presence of TP0903. Naïve T cells were stimulated with 5 ng/ml of PMA and 0.1 μg/ml of Ionomycin in the absence or in the increasing dose of TP0903 (10-65 nM) for 3 days. […] B. At the end of the expansion on day 3, T cells were stained with inhibitory receptors. […] C. Naïve T cell degranulation assay and cytokine production in the presence of TP0903. Naïve T cells were stimulated with 50 ng/ml of PMA and 1 μg/ml of Ionomycin for 4 hours in the presence of increasing doses of TP0903 (10-65 nM). […] D. Western blot analysis of p-LCK and GATA-3 inhibition by TP0903 in naïve T cells. Naïve T cells were stimulated with 5 ng/ml of PMA and 0.1 ug/ml of Ionomycin in the absence (DMSO) or in the increasing dose of TP0903 (10-65 nM) for 24 hours. […] was used as loading control. E. TP0903 specifically reduces regulatory T cells (Treg). Effector T cells (Teff) were isolated by negative selection using RoboSep™ Human T Cell Isolation Kit (Stemcell Technologies). Tregs were isolated by negative selection using the human CD4^+CD127^lowCD25^+ Treg isolation kit (Stemcell Technologies). Teff and Treg were stimulated with anti-CD3/CD28 beads and 400 U/ml of IL-2. At day 5, total T cells were evaluated via CountBright quantification.

The test system of the next assay is CART19. Description: CART19 cytokine release (Luminex) in the presence of TP0903. Format: cell-based, human. Conditions: for Th2 cytokines IL-4 and IL-5 / cytokine release syndrome (CRS) cytokines (MCP1, IL-6, IL-10, MIP-b): Jeko or CLL cells. As for the experimental part:
FIG. 7 contains an exemplary timeline for a cytokine assay in the presence of TP0903. UTDs or CART19 were incubated with Jeko in the presence of TP0903 in the 1 to 1 ratio. At day 3, supernatant was harvested and analyzed by 32-plex Luminex array.
FIG. 23. CART19 cytokine production in the presence of TP0903. CART19 cells or untransduced T cells were co-cultured with JeKo-1 cells or leukemic B cells derived from patients with chronic lymphocytic leukemia for 3 days and supernatants were analyzed for human cytokines (Luminex, 38-plex).
FIG. 27. CART19 cytokine production in the presence of TP-0903. CART19 cells or untransduced T cells were co-cultured with JeKo-1 cells (left heat map) or leukemic B cells (right heat map) derived from patients with chronic lymphocytic leukemia for 3 days, and supernatants were analyzed for human cytokines (Luminex, 38-plex).
Effector and target cells were incubated at a 1:1 ratio in T cell media for 24 or 72 hours as indicated. Supernatant was harvested and analyzed by 30-plex Luminex array according to the manufacturer's protocol (Millipore).
UTDs or CART19 were incubated with Jeko cell line or primary CLL cells in the presence of TP0903, at 1:1 ratio for 3 days (FIG. 7). At the end of the experiment, supernatant was harvested and analyzed for cytokines by 30-plex multiplex. […] TP0903 suppressed critical cytokines for the development of CRS after CART cell therapy (FIG. 10).

[1] abbreviates: 3 days, supernatant, listed as TP-0903.

The structures appear in SMILES notation. Entries after “also recorded” stand apart in the source; their conditions may differ.

In the case of `CN1CCN(Cc2ccc(Nc3ncc(Cl)c(Nc4ccccc4S(=O)(=O)N(C)C)n3)cc2)CC1` [TP0903], the Teff expansion result in the assay with Effector T cells (Teff) is on record as “not interfered”. Besides, the IL-4 entry with Naïve T cells (4 hours, increasing dose of TP0903 (10-65 nM)) is listed as “significant inhibition”. For the same compound, the “cytokine production (Th1 / Th2 cytokines)” value in the assay on Naïve T cells (low dose TP0903) was “favorably altered through the promotion of Th1 and reduction of Th2 cytokines”. In addition, the “CART Th1 specific cytokines (IFN-γ, TNF-α)” value in the assay with CART19 (1:1 with Jeko or primary CLL cells, 3 days, supernatant) is recorded as “only high doses (supra-physiological) suppressed; also recorded: maintains”. In the assay on CART19 (JeKo-1 or CLL leukemic B cells, 3 days, Luminex 38-plex), the IL-8 result is given as “downregulated”. Further, the “cytokine production ability of IFN-γ, GM-CSF, TNF-α, and IL-2” value with CART19 (JeKo-1 or CLL patient leukemic B cells, 3 days, Luminex 38-plex) is reported as “maintained”. In the assay on CART19 (3 days, supernatant), the “Th2 cytokines IL-4 and IL-5” value was “suppresses; also recorded: significantly downregulated”; the “cytokine release syndrome (CRS) cytokines (MCP1, IL-6, IL-10, MIP-b)” value is reported as “suppresses; also recorded: reduction; also recorded: remarkably downregulated”. For the same compound, in the assay on CART19 (setting [1]), the “Th2 cytokines IL-4 and IL-5” value is reported as “significantly downregulated”; the “cytokine release syndrome (CRS) cytokines (MCP1, IL-6, IL-10, MIP-b)” value is reported as “remarkably downregulated”. The “Th polarization of CART cells” value in the assay on CART19 (stimulated with JeKo or leukemic B cells from CLL patients) was “polarization of CART cells into a Th1 phenotype”.
